Data: PubChem BioAssay (NCI)
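Five concentrations, 48 hours, 96-well plates. The concentration for full growth arrest is given as TGI.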

Columns and labels:
Assay in all cases: NCI tumour cell line growth inhibition, 48 h
[1] = tested on: MALME-3M melanoma
[2] = tested on: COLO 205 colon
[3] = tested on: OVCAR-3 ovarian
[4] = tested on: NCI/ADR-RES ovarian
[5] = tested on: HOP-62 NSCLC
[6] = tested on: CAKI-1 renal
[7] = tested on: A549 NSCLC
[8] = tested on: NCI-H460 lung
[9] = tested on: SNB-78 CNS
[10] = tested on: KM20L2 colon
[11] = tested on: NCI-H23 lung
[12] = tested on: UACC-257 melanoma
[13] = tested on: OVCAR-4 ovarian
[14] = tested on: UACC-62 melanoma
[15] = tested on: SK-OV-3 ovarian
[16] = tested on: SF-295 CNS
[17] = tested on: HCT-15 colon
[18] = tested on: SF-268 CNS
[19] = tested on: OVCAR-8 ovarian
[20] = tested on: HCC-2998 colon
[21] = tested on: U251 CNS
[22] = tested on: HOP-92 NSCLC
[23] = tested on: NCI-H226 lung
[24] = tested on: RPMI-8226 leukemia
[25] = tested on: MOLT-4 leukemia
[26] = tested on: RXF 393 renal
[27] = tested on: A498 renal
[28] = tested on: MCF7 breast
[29] = tested on: DMS 273 small cell lung
[30] = tested on: LOX IMVI melanoma
[31] = tested on: M19-MEL melanoma
[32] = tested on: UO-31 renal
[33] = tested on: SN12C renal
[34] = tested on: SK-MEL-5 melanoma
[35] = tested on: P388 leukemia
[36] = tested on: XF 498 CNS
[37] = tested on: SN12K1 renal
[38] = tested on: KM12 colon
[39] = tested on: HT29 colon
[40] = tested on: NCI-H522 lung
[41] = tested on: SNB-19 CNS
[42] = tested on: EKVX NSCLC
[43] = tested on: SNB-75 CNS
[44] = tested on: SW-620 colon
[45] = tested on: IGROV1 ovarian
[46] = tested on: HOP-18 NSCLC
[47] = tested on: SK-MEL-2 melanoma
[48] = tested on: CCRF-CEM leukemia
[49] = tested on: K-562 leukemia
[50] = tested on: DLD-1 colon
[51] = tested on: P388/ADR leukemia
[52] = tested on: HCT-116 colon
[53] = tested on: SF-539 CNS
[54] = tested on: OVCAR-5 ovarian
[55] = tested on: SK-MEL-28 melanoma
[56] = tested on: TK-10 renal
[57] = tested on: HL-60(TB) leukemia
[58] = tested on: RXF-631 renal
[59] = tested on: DMS 114 small cell lung
[60] = tested on: ACHN renal
[61] = tested on: 786-0 renal
[62] = tested on: M14 melanoma
[63] = tested on: LXFL 529 NSCLC
[64] = tested on: SR leukemia

CC12CCC3C(CCC4(O)C=CCCC34C=O)C1(O)CC(O)C2c1ccc(=O)oc1 (stereo not given)
TGI [1]: 0.0877 µM
TGI [2]: 0.381 µM
TGI [3]: 0.0939 µM
TGI [4]: 0.282 µM
TGI [5]: 0.0954 µM
TGI [6]: 0.0894 µM
TGI [7]: 0.0646 µM
TGI [8]: 0.0716 µM
TGI [9]: 0.97 µM
TGI [10]: 0.267 µM
TGI [11]: 0.12 µM
TGI [12]: 0.478 µM
TGI [13]: 0.102 µM
TGI [14]: 0.145 µM
TGI [15]: 0.248 µM
TGI [16]: 0.149 µM
TGI [17]: 0.178 µM
TGI [18]: 0.0754 µM
TGI [19]: 0.193 µM
TGI [20]: 0.252 µM
TGI [21]: 0.197 µM
TGI [22]: 0.267 µM
TGI [23]: 0.369 µM
TGI [24]: 0.839 µM
TGI [25]: 0.394 µM
TGI [26]: 0.0693 µM
TGI [27]: 0.253 µM
TGI [28]: 0.344 µM
TGI [29]: 0.0712 µM
TGI [30]: 0.216 µM
TGI [31]: 0.264 µM
TGI [32]: 0.141 µM
TGI [33]: 0.199 µM
TGI [34]: 0.0887 µM
TGI [35]: 500 µM
TGI [36]: 0.158 µM
TGI [37]: 0.108 µM
TGI [38]: 0.367 µM
TGI [39]: 1.71 µM
TGI [40]: 0.0622 µM
TGI [41]: 0.527 µM
TGI [42]: 0.087 µM
TGI [43]: 0.246 µM
TGI [44]: 0.222 µM
TGI [45]: 0.35 µM
TGI [46]: 0.371 µM
TGI [47]: 0.295 µM
TGI [48]: 10.1 µM
TGI [49]: 1.29 µM
TGI [50]: 0.098 µM
TGI [51]: > 500 µM
TGI [52]: 0.22 µM
TGI [53]: 0.0735 µM
TGI [54]: 0.638 µM
TGI [55]: 0.799 µM

CC(=O)Nc1ccc(S(=O)(=O)N/N=C/c2cc(I)cc([N+](=O)[O-])c2O)cc1
TGI [1]: > 100 µM
TGI [2]: > 100 µM
TGI [3]: > 100 µM
TGI [6]: > 100 µM
TGI [56]: > 100 µM
TGI [7]: > 100 µM
TGI [8]: > 100 µM
TGI [9]: > 100 µM
TGI [10]: > 100 µM
TGI [11]: 85 µM
TGI [12]: > 100 µM
TGI [13]: > 100 µM
TGI [14]: 90.9 µM
TGI [15]: > 100 µM
TGI [16]: > 100 µM
TGI [57]: > 100 µM
TGI [17]: > 100 µM
TGI [18]: > 100 µM
TGI [19]: > 100 µM
TGI [20]: > 100 µM
TGI [21]: > 100 µM
TGI [23]: > 100 µM
TGI [24]: > 100 µM
TGI [25]: > 100 µM
TGI [26]: 85.2 µM
TGI [27]: > 100 µM
TGI [58]: > 100 µM
TGI [29]: > 100 µM
TGI [30]: > 100 µM
TGI [59]: > 100 µM
TGI [31]: > 100 µM
TGI [32]: > 100 µM
TGI [33]: > 100 µM
TGI [60]: > 100 µM
TGI [34]: > 100 µM
TGI [36]: 74.6 µM
TGI [61]: > 100 µM
TGI [38]: > 100 µM
TGI [39]: > 100 µM
TGI [41]: > 100 µM
TGI [42]: > 100 µM
TGI [43]: 91.6 µM
TGI [44]: > 100 µM
TGI [45]: > 100 µM
TGI [46]: 96.5 µM
TGI [47]: > 100 µM
TGI [48]: > 100 µM
TGI [49]: > 100 µM
TGI [50]: > 100 µM
TGI [54]: > 100 µM
TGI [62]: > 100 µM
TGI [55]: 98.7 µM

c1ccc2c(CNCCCN3CCN(CCCNCc4cccc5ccccc45)CC3)cccc2c1
TGI [1]: 3.56 µM
TGI [2]: 3.85 µM
TGI [3]: 9.53 µM
TGI [5]: 34.4 µM
TGI [6]: 4.02 µM
TGI [56]: 2.95 µM
TGI [7]: 4.25 µM
TGI [8]: 2.81 µM
TGI [9]: 4.59 µM
TGI [10]: 3.18 µM
TGI [11]: 23.6 µM
TGI [12]: 3.34 µM
TGI [13]: 5 µM
TGI [14]: 3.26 µM
TGI [15]: 5.22 µM
TGI [16]: 3.28 µM
TGI [57]: 3.45 µM
TGI [17]: 3.47 µM
TGI [18]: 6.11 µM
TGI [19]: 4.03 µM
TGI [21]: 3.16 µM
TGI [22]: 4.65 µM
TGI [23]: 7.75 µM
TGI [25]: 2.92 µM
TGI [26]: 2.4 µM
TGI [27]: 22.9 µM
TGI [58]: 2.41 µM
TGI [29]: 3.43 µM
TGI [30]: 2.67 µM
TGI [59]: 3.46 µM
TGI [31]: 3.37 µM
TGI [32]: 3.22 µM
TGI [33]: 13.5 µM
TGI [60]: 6.85 µM
TGI [34]: 3.14 µM
TGI [36]: 3.17 µM
TGI [61]: 4.18 µM
TGI [38]: 3.7 µM
TGI [63]: 3.17 µM
TGI [39]: 3.2 µM
TGI [40]: 2.99 µM
TGI [42]: 13.1 µM
TGI [43]: 3.15 µM
TGI [44]: 3.25 µM
TGI [45]: 10.1 µM
TGI [46]: 18.7 µM
TGI [47]: 3.02 µM
TGI [48]: 3 µM
TGI [50]: 3.69 µM
TGI [52]: 2.83 µM
TGI [53]: 3.01 µM
TGI [54]: 5.32 µM
TGI [62]: 2.42 µM
TGI [55]: 3.06 µM

CCC(CO)COC(=O)/C=C/C(=O)OCC(CC)CO (stereo not given)
TGI [1]: > 100 µM
TGI [2]: > 100 µM
TGI [3]: > 100 µM
TGI [5]: > 100 µM
TGI [6]: > 100 µM
TGI [56]: > 100 µM
TGI [7]: > 100 µM
TGI [8]: > 100 µM
TGI [9]: > 100 µM
TGI [10]: > 100 µM
TGI [11]: > 100 µM
TGI [12]: > 100 µM
TGI [13]: > 100 µM
TGI [14]: > 100 µM
TGI [15]: > 100 µM
TGI [16]: > 100 µM
TGI [57]: 45.5 µM
TGI [17]: > 100 µM
TGI [18]: > 100 µM
TGI [19]: > 100 µM
TGI [20]: > 100 µM
TGI [21]: > 100 µM
TGI [22]: > 100 µM
TGI [23]: > 100 µM
TGI [24]: > 100 µM
TGI [25]: > 100 µM
TGI [26]: > 100 µM
TGI [27]: > 100 µM
TGI [58]: > 100 µM
TGI [29]: > 100 µM
TGI [30]: > 100 µM
TGI [59]: > 100 µM
TGI [31]: > 100 µM
TGI [32]: > 100 µM
TGI [33]: > 100 µM
TGI [60]: > 100 µM
TGI [34]: > 100 µM
TGI [36]: > 100 µM
TGI [61]: > 100 µM
TGI [38]: > 100 µM
TGI [63]: > 100 µM
TGI [39]: > 100 µM
TGI [64]: > 95.6 µM
TGI [40]: > 100 µM
TGI [41]: > 100 µM
TGI [42]: > 100 µM
TGI [43]: > 100 µM
TGI [44]: > 100 µM
TGI [45]: > 100 µM
TGI [46]: > 100 µM
TGI [47]: > 100 µM
TGI [48]: > 82.6 µM
TGI [49]: > 100 µM
TGI [50]: > 100 µM
TGI [52]: > 100 µM
TGI [53]: > 100 µM
TGI [54]: > 100 µM
TGI [62]: > 100 µM
TGI [55]: > 100 µM
